This note sets out measurements from patent US12286429B2, “5-oxo-1,2,3,5,8,8a-hexahydroindolizine-3-carboxamide derivatives useful as a factor XIa inhibitors” (Janssen Pharmaceutica NV, priority 2021, dated 2025).

SMILES strings stand for the structures.

One experiment has as its target Factor XIa (Homo sapiens, UniProt P03951). The experiment is described as follows: Factor XIa inhibition assay utilizing a fluorophore-quencher pair peptide substrate (FLINT). Format: biochemical. As to conditions: 11-point, 3-fold serial dilution, top 100 nM; 30 min preincubation; 15 μM 5Fam-KLTRAETV-K5Tamra substrate; kinetic reads over 30 min; read-out: FXIa Inhibition IC50. From the text:
Biological Example 1: Factor XIa Inhibition Assay Utilizing a Fluorophore-Quencher Pair Peptide Substrate
A fluorescence intensity (FLINT) based assay was used to monitor inhibition of Factor XIa. The peptide substrate, 5Fam-KLTRAETV-K5Tamra (purchased from New England Peptide) was chosen based on the FXI sequence. Conversion of zymogen FXI to its activated form, FXIa, occurs by proteolytic cleavage by […] at two sites, Arg146 and Arg180. The custom peptide used in this assay was based on the Arg146 cleavage site of FXI. The peptide substrate was designed with a fluorophore-quencher pair, where the fluorescence is quenched until FXIa cleaves the 8-mer peptide after the Arg residue.
The Factor XIa FLINT assay was used with the following 5Fam-KLTRAETV-K5Tamra assay buffer: 50 mM Tris, pH 7.5, 100 mM NaCl, 5 mM CaCl2, 0.1 mg/mL BSA, 0.03% CHAPS. Assay buffer was prepared by mixing all ingredients fresh. 5Fam-KLTRAETV-K5Tamra peptide substrate was first prepared at 10 mM in 100% DMSO, then diluted to 3 mM in 100% DMSO. Assay buffer was then added directly to the 3 mM stock of substrate to prepare the 30 μM 2× working concentration (15 μM final concentration). The 2× Factor XIa stock solution was prepared by diluting 6.562 μM stock in 1× assay buffer for a […].
Test compound(s) were run in an 11-point, 3-fold serial dilution with a final top compound concentration of 100 nM. Final DMSO in assay was 2%. FXIa was preincubated with compound for 30-minutes and then substrate was added to initiate the reaction. The assay was run with kinetic (KIN) reads at 5 min intervals over 30 minutes. […] More specifically, the assay was run as follows: • 100 nL of 0.01 mM test compound was dispensed into black 384-well non-binding Greiner BioOne 784900 plate for 0.1 μM final concentration, • 5 μL of 1× assay buffer was dispensed to column 24 (low control) and 5 μL 2× Factor XIa solution was dispensed to columns 1-23 (column 23 high control); • the plate was centrifuged with a “cover” plate at 500 rpm for 1 min • the plate was pre-incubated for 30 minutes at room temperature with plate covered; • 5 μL of 2×5Fam-KLTRAETV-K5Tamra peptide substrate was dispensed into the entire plate, columns 1-24; • the plate was centrifuged with a “cover” plate at 500 rpm for 1 min; • the plate was read monitoring fluorescence intensity on the BMG PHERAStar at room temperature, using fluorescence module 485 nm/520 nm.
(§1) Percent inhibition (IC50) curves were generated per compound tested, and data was analyzed using a 4-parameter logistic fit using GeneData Screener. The relative fluorescence unit (RFU) values were normalized to percent inhibition using the following equation: % inhibition=((HC−LC)−(compound−LC)/(HC−LC))*100
where LC—low control=mean signal of no Factor XIa or 100% inhibition of Factor XIa; HC—high control=mean signal of Factor XIa+5Fam-KLTRAETV-K5Tamra peptide substrate with DMSO only.
(§2) An 11-point dose response curve for the test compound(s) was generated using GENDATA to determine IC50 value based on the following equation: Y=Bottom+(Top−Bottom)/(1+10^((log IC50−X)*HillSlope))
where Y is the % inhibition in the presence of X inhibitor concentration, Top=high control=mean signal of Factor XIa+5Fam-KLTRAETV-K5Tamra peptide substrate with DMSO only; Bottom=low control—mean signal of no Factor XIa or 100% inhibition of Factor XIa; HillSlope—Hill coefficient; and IC50=concentration of compound with 50% inhibition in relation to top/high control.

A further experiment has as its target human plasma kallikrein (Homo sapiens, UniProt P03952). The experiment is described as follows: Kallikrein inhibition assay utilizing a quenched AMC peptide substrate (FLINT). Conditions: 11-point, 3-fold serial dilution, top 1 μM; 30 min preincubation; 2 nM kallikrein; 50 μM Z-Gly-Pro-Arg-AMC; kinetic reads over 30 min. Type of experiment: biochemical. As to the method:
Biological Example 2: Kallikrein Inhibition Assay Utilizing a Quenched AMC Peptide Substrate
A fluorescence intensity (FLINT) based assay was used to monitor inhibition of human plasma kallikrein. The peptide substrate, Z-Gly-Pro-Arg-AMC (Purchased from Bachem; Catalog #I-1150) was chosen based on its relatively low KM for kallikrein which enables running the assay at lower substrate concentrations to control background fluorescence. The kinetic parameters for this substrate were determined by fitting titration data to the Michaelis-Menten equation yielding a KM=40 μM, kcat=0.76 s^−1, and kcat/KM=18932 M^−1s^−1.
The Kallikrein FLINT assay was used with the following Z-Gly-Pro-Arg-AMC assay buffer: 50 mM Tris, pH 7.5, 100 mM NaCl, 5 mM CaCl2, 0.1 mg/mL BSA, 0.03% CHAPS. Assay buffer was prepared by mixing all ingredients fresh. 2× Z-Gly-Pro-Arg-AMC peptide substrate was prepared by diluting 10 mM stock into 1× assay buffer for a 100 μM working concentration (50 μM final concentration). The 2× kallikrein stock solution was prepared by diluting 14.76 μM stock in 1× assay buffer for a 4 nM working stock solution (2 nM final concentration).
Test compound(s) were run in an 11-point, 3-fold serial dilution with a final top compound concentration of 1 μM. Final DMSO in assay was 2%. Plasma kallikrein was pre-incubated for 30-minute with compound and then 50 μM substrate was added to initiate the reaction. The assay was run with kinetic (KIN) reads at 5 min intervals over 30 minutes. The time course was linear using 2 nM kallikrein greater than 30 minutes. More specifically, the assay was run as follows: • 100 nL of 0.1 mM test compound was dispensed into black 384-well non-binding Greiner BioOne 784900 plate for 1 μM final concentration; • 5 μL of 1× assay buffer was dispensed to columns 24 (low control) and 5 μL 2× human kallikrein enzyme solution was dispensed to columns 1-23 (column 23 high control); • the plate was centrifuged with a “cover” plate at 500 rpm for 1 min • the plate was pre-incubated for 30 minutes at room temperature with plate covered; • 5 μL of 2× Z-Gly-Pro-Arg-AMC peptide substrate was dispensed into the entire plate, columns 1-24; • the plate was centrifuged with a “cover” plate at 500 rpm for 1 min; • the plate was read monitoring fluorescence intensity on the BMG PHERAStar at room temperature, using fluorescence module 340 nm/440 nm.
as §1
where LC—low control=mean signal of […] 100% inhibition of human kallikrein enzyme; HC—high control=mean signal of […]+Z-Gly-Pro-Arg-AMC peptide substrate with DMSO only.
as §2
where Y is the % inhibition in the presence of X inhibitor concentration, Top=high control=mean signal of human kallikrein enzyme+Z-Gly-Pro-Arg-AMC peptide substrate with DMSO only; Bottom=low control—mean signal of no human kallikrein enzyme or 100% inhibition of human kallikrein enzyme; HillSlope—Hill coefficient; and IC50=concentration of compound with 50% inhibition in relation to top/high control.

Chain of human plasma kallikrein (P03952 391-638 limits assumed): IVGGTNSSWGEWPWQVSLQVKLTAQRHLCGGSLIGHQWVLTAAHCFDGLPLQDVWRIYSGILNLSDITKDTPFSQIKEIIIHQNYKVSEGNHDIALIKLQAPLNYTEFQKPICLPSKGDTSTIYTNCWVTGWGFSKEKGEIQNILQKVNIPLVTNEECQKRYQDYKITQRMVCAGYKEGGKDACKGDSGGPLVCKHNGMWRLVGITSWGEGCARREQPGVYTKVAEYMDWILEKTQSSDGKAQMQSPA
Chain of human plasma kallikrein (P03952 20-390 partner limits assumed): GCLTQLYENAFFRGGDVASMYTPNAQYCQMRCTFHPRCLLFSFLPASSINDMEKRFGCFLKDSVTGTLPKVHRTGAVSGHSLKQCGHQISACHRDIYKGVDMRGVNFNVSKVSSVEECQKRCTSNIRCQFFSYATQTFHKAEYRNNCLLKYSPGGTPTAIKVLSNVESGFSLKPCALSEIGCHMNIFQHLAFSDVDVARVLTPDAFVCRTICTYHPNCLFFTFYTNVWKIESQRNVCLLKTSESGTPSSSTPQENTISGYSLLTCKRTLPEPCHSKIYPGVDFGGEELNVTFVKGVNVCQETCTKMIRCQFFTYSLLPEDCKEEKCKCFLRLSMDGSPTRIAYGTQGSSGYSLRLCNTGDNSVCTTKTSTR
Chain of Factor XIa (P03951 388-625 limits assumed): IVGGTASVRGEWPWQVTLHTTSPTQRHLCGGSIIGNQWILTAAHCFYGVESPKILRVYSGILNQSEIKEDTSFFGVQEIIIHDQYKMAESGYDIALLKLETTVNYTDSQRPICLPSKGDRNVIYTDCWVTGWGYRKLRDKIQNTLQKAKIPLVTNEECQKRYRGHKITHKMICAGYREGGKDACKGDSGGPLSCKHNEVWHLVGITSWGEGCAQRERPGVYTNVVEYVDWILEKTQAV
Chain of Factor XIa (P03951 19-387 partner limits assumed): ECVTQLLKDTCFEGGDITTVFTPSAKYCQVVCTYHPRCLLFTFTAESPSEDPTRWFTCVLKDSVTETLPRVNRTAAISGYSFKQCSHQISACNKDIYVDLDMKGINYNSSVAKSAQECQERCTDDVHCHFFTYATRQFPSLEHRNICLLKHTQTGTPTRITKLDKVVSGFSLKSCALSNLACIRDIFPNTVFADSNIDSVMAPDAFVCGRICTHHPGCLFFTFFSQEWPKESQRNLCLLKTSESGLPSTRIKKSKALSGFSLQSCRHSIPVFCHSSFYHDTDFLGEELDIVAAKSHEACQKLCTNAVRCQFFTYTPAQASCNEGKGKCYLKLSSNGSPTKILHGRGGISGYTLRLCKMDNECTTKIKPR

In the case of `CO[C@H]1C[C@@H](C(=O)Nc2ccc3ncccc3c2)N2C(=O)C=C(c3c(-n4cnnn4)ccc(Cl)c3F)CC12` (mixture of isomers) [ID No. 29, (1S,3S)-7-[3-Chloro-2-fluoro-6-(tetrazol-1-yl)phenyl]-1-methoxy-5-oxo-N-(6-quinolyl)-2,3,8,8a-tetrahydro-1H-indolizine-3-carboxamide], the IC50 at Factor XIa amounted to 180 nM; on human plasma kallikrein, 611 nM.

Regarding `O=C(Nc1ccc2c(c1)CN(O)C2=O)[C@@H]1CCC2CC(c3c(-n4cnnn4)ccc(Cl)c3F)=CC(=O)N21` (mixture of isomers) [ID No. 30, (3S)-7-(3-Chloro-2-fluoro-6-(1H-tetrazol-1-yl)phenyl)-N-(2-hydroxy-1-oxoisoindolin-5-yl)-5-oxo-1,2,3,5,8,8a-hexahydroindolizine-3-carboxamide], the IC50 on Factor XIa is over 95 nM; against human plasma kallikrein it was 128 nM.

As to `CN(O)C(=O)c1cc2cc(NC(=O)[C@@H]3CCC4CC(c5c(-n6cnnn6)ccc(Cl)c5F)=CC(=O)N43)ccc2[nH]1` (mixture of isomers) [ID No. 31, 5-((3S)-7-(3-Chloro-2-fluoro-6-(1H-tetrazol-1-yl)phenyl)-5-oxo-1,2,3,5,8,8a-hexahydroindolizine-3-carboxamido)-N-hydroxy-N-methyl-1H-indole-2-carboxamide], the IC50 at Factor XIa was 4.8 nM; on human plasma kallikrein, 23.7 nM.

Take `O=C(O)/C=C/c1ccc(NC(=O)[C@@H]2CCC3CC(c4c(-n5cnnn5)ccc(Cl)c4F)=CC(=O)N32)cc1` (mixture of isomers) [ID No. 32, (E)-3-(4-((3S)-7-(3-Chloro-2-fluoro-6-(1H-tetrazol-1-yl)phenyl)-5-oxo-1,2,3,5,8,8a-hexahydroindolizine-3-carboxamido)phenyl)acrylic acid]: the IC50 on Factor XIa is 1.6 nM; at human plasma kallikrein it was 14.4 nM.

In the case of `NC(=O)c1c(F)cc(NC(=O)[C@@H]2CCC3CC(c4c(-n5cnnn5)ccc(Cl)c4F)=CC(=O)N32)cc1F` (mixture of isomers) [ID No. 33, (3S)—N-(4-Carbamoyl-3,5-difluorophenyl)-7-(3-chloro-2-fluoro-6-(1H-tetrazol-1-yl)phenyl)-5-oxo-1,2,3,5,8,8a-hexahydroindolizine-3-carboxamide], the IC50 on Factor XIa was 24 nM; against human plasma kallikrein it was 204 nM.

As for `CN(O)C(=O)c1ccc(NC(=O)[C@@H]2CCC3CC(c4c(-n5cnnn5)ccc(Cl)c4F)=CC(=O)N32)cc1` (mixture of isomers) [ID No. 34, (3S)-7-(3-Chloro-2-fluoro-6-(1H-tetrazol-1-yl)phenyl)-N-(4-(hydroxy(methyl)carbamoyl)phenyl)-5-oxo-1,2,3,5,8,8a-hexahydroindolizine-3-carboxamide], the half-inhibitory concentration (IC50) at Factor XIa was found to be 36.3 nM; at human plasma kallikrein, 279 nM.

In the case of `O=C(O)c1c(F)cc(NC(=O)[C@@H]2CCC3CC(c4c(-n5cnnn5)ccc(Cl)c4F)=CC(=O)N32)cc1F` (mixture of isomers) [ID No. 37, 4-[[(3S)-7-[3-Chloro-2-fluoro-6-(tetrazol-1-yl)phenyl]-5-oxo-2,3,8,8a-tetrahydro-1H-indolizine-3-carbonyl]amino]-2,6-difluoro-benzoic acid], the figures for the half-inhibitory concentration (IC50) at Factor XIa and against human plasma kallikrein were 5.8 nM and 282 nM, respectively.

As to `O=C(Nc1ccc(-c2nc(=O)o[nH]2)cc1)[C@@H]1CCC2CC(c3c(OC(F)F)ccc(Cl)c3F)=CC(=O)N21` (mixture of isomers) [ID No. 38, (3S)-7-(3-Chloro-6-(difluoromethoxy)-2-fluorophenyl)-5-oxo-N-(4-(5-oxo-2,5-dihydro-1,2,4-oxadiazol-3-yl)phenyl)-1,2,3,5,8,8a-hexahydroindolizine-3-carboxamide], the IC50 amounted to 40.2 nM on Factor XIa and 421 nM against human plasma kallikrein.

Take `NC(=O)c1ccc(NC(=O)[C@@H]2CCC3CC(c4c(-n5cnnn5)ccc(Cl)c4F)=CC(=O)N32)cc1F` (mixture of isomers) [ID No. 39, (3S)—N-(4-Carbamoyl-3-fluorophenyl)-7-(3-chloro-2-fluoro-6-(1H-tetrazol-1-yl)phenyl)-5-oxo-1,2,3,5,8,8a-hexahydroindolizine-3-carboxamide]: the figures for the IC50 at Factor XIa and on human plasma kallikrein were 7.5 nM and 53 nM, respectively.

For `NC(=O)c1ccc(NC(=O)[C@@H]2CCC3CC(c4c(-n5cnnn5)ccc(Cl)c4F)=CC(=O)N32)cc1` (mixture of isomers) [ID No. 41, (3S)—N-(4-Carbamoylphenyl)-7-(3-chloro-2-fluoro-6-(1H-tetrazol-1-yl)phenyl)-5-oxo-1,2,3,5,8,8a-hexahydroindolizine-3-carboxamide], the figures for the IC50 at Factor XIa and on human plasma kallikrein were 7.4 nM and 79.7 nM, respectively.

For `O=C(Nc1ccc(-c2nc(=O)o[nH]2)c(F)c1)[C@@H]1CCC2CC(c3c(-n4cnnn4)ccc(Cl)c3F)=CC(=O)N21` (mixture of isomers) [ID No. 42, (3S)-7-[3-Chloro-2-fluoro-6-(tetrazol-1-yl)phenyl]-N-[3-fluoro-4-(5-oxo-2H-1,2,4-oxadiazol-3-yl)phenyl]-5-oxo-2,3,8,8a-tetrahydro-1H-indolizine-3-carboxamide], the IC50 came to 0.3 nM at Factor XIa and 10 nM on human plasma kallikrein.

Consider `CO[C@@H]1C[C@@H](C(=O)Nc2ccc3n[nH]cc3c2)N2C(=O)C=C(c3c(-n4cnnn4)ccc(Cl)c3F)CC12` (mixture of isomers) [ID No. 43, (1R,3S)-7-[3-Chloro-2-fluoro-6-(tetrazol-1-yl)phenyl]-N-(2H-indazol-5-yl)-1-methoxy-5-oxo-2,3,8,8a-tetrahydro-1H-indolizine-3-carboxamide], for which the IC50 at Factor XIa is 11 nM; against human plasma kallikrein, 31.3 nM.
